US11673883B2, “Heterocyclic compounds as immunomodulators” (Incyte Corporation, priority 2016, dated 2023)

Molecular target: PD-1/PD-L1 protein/protein interaction (Homo sapiens (Human), UniProt Q9NZQ7)
Experiment: PD-1/PD-L1 Homogeneous Time-Resolved Fluorescence (HTRF) Binding Assay
Conditions: recombinant human PD-L1 (19-238) His-tag, human PD-1 (25-167) Fc tag; 25° C., PBS pH 7.4
Description: Example A. PD-1/PD-L1 Homogeneous Time-Resolved Fluorescence (HTRF) Binding Assay
The assays were conducted in a standard black 384-well polystyrene plate with a final volume of 20 μL. Inhibitors were first serially diluted in DMSO and then added to the plate wells before the addition of other reaction components. The final concentration of DMSO in the assay was 1%. The assays were carried out at 25° C. in the PBS buffer (pH 7.4) with 0.05% Tween-20 and 0.1% BSA. Recombinant human PD-L1 protein (19-238) with a His-tag at the C-terminus was purchased from AcroBiosystems (PD1-H5229). Recombinant human PD-1 protein (25-167) with Fc tag at the C-terminus was also purchased from AcroBiosystems (PD1-H5257). PD-L1 and PD-1 proteins were diluted in the assay buffer and […] was added to the plate well. Plates were centrifuged and proteins were preincubated with inhibitors for 40 minutes. The incubation was followed by the addition of 10 μL of HTRF detection buffer supplemented with Europium cryptate-labeled anti-human IgG (PerkinElmer-AD0212) specific for Fc and anti-His antibody conjugated to SureLight®-Allophycocyanin (APC, PerkinElmer-AD0059H). After centrifugation, the plate was incubated at 25° C. for 60 min. before reading on a PHERAstar FS plate reader (665 nm/620 nm ratio). Final concentrations in the assay were […], 10 nM PD-L1, 1 nM europium anti-human IgG and 20 nM anti-His-Allophycocyanin. IC50 determination was performed by fitting the curve of percent control activity versus the log of the inhibitor concentration using the GraphPad Prism 5.0 software.

Chain of PD-1/PD-L1 protein/protein interaction (Q9NZQ7 19-238): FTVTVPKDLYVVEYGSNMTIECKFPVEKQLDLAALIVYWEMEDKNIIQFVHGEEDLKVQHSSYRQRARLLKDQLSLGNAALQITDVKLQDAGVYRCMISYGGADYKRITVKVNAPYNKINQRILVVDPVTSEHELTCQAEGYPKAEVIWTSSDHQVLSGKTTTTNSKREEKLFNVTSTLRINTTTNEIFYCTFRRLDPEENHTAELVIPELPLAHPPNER

SMILES | IC50 [nM]
CC1(NC2CCN(c3cccc(-c4ccc5c(c4)OCCO5)c3C#N)CC2)CC1 [Example 22, 2-(2,3-dihydrobenzo[b][1,4]dioxin-6-yl)-6-(4-(1-methylcyclopropylamino)piperidin-1-yl)benzonitrile] | ≤ 100
Cc1c(-c2ccccc2)cccc1N1CCC(N[C@H]2CC[C@H](O)CC2)CC1 [Example 30, trans-4-(1-(2-methylbiphenyl-3-yl)piperidin-4-ylamino)cyclohexanol] | ≤ 100
Cc1c(-c2ccccc2)cccc1N1CCC(NC2CCCC2)CC1 [Example 37, N-cyclopentyl-1-(2-methylbiphenyl-3-yl)piperidin-4-amine] | ≤ 100
CC(O)C1CCN(C2CCN(c3cccc(-c4ccc5c(c4)OCCO5)c3C#N)CC2)C1 (centres unmarked) [Example 21, 2-(2,3-dihydrobenzo[b][1,4]dioxin-6-yl)-6-(4-(3-(1-hydroxyethyl)pyrrolidin-1-yl)piperidin-1-yl)benzonitrile] | ≤ 100
Cc1c(-c2ccccc2)cccc1N1CCC(N[C@H]2C[C@@H](O)C2)CC1 [Example 29, cis-3-(1-(2-methylbiphenyl-3-yl)piperidin-4-ylamino)cyclobutanol] | ≤ 100
Cc1c(-c2ccccc2)cccc1N1CCC(NC2CCC(C(=O)O)CC2)CC1 (single isomer, unassigned) [41 (peak 2), 4-(1-(2-methylbiphenyl-3-yl)piperidin-4-ylamino)cyclohexane-carboxylic acid] | ≤ 100
COc1cccc(-c2cccc(N3CCC(N4CCCC4)CC3)c2C#N)c1 [Example 48, 3′-methoxy-3-(4-(pyrrolidin-1-yl)piperidin-1-yl)biphenyl-2-carbonitrile] | 100 to 500
Cc1c(-c2ccccc2)cccc1N1CCC(N[C@H]2CC[C@@H](O)CC2)CC1 [Example 33, cis-4-(1-(2-methylbiphenyl-3-yl)piperidin-4-ylamino)cyclohexanol] | ≤ 100
C[C@@H]1CN(C2CCN(c3cccc(-c4ccc5c(c4)OCCO5)c3C#N)CC2)C[C@H]1CO (relative stereo) [Example 9, 2-(2,3-dihydrobenzo[b][1,4]dioxin-6-yl)-6-(4-(trans-3-(hydroxymethyl)-4-methylpyrrolidin-1-yl)piperidin-1-yl)benzonitrile] | ≤ 100
N#Cc1c(-c2ccc3c(c2)OCCO3)cccc1N1CCC(N2CCC(CCO)C2)CC1 (centres unmarked) [Example 15, 2-(2,3-dihydrobenzo[b][1,4]dioxin-6-yl)-6-(4-(3-(2-hydroxyethyl)pyrrolidin-1-yl)piperidin-1-yl)benzonitrile] | ≤ 100
Cc1c(-c2ccccc2)cccc1N1CCC(N[C@H]2C[C@H](O)C2)CC1 [Example 28, trans-3-(1-(2-methylbiphenyl-3-yl)piperidin-4-ylamino)cyclobutanol] | ≤ 100
Cc1c(-c2ccccc2)cccc1N1CCC(NC2CCC(CC#N)CC2)CC1 (centres unmarked) [Example 39, 2-(4-(1-(2-methylbiphenyl-3-yl)piperidin-4-ylamino)cyclohexyl) acetonitrile] | ≤ 100
CC[C@H](CO)NC1CCN(c2cccc(-c3ccccc3)c2C)CC1 [Example 35, (R)-2-(1-(2-methylbiphenyl-3-yl)piperidin-4-ylamino)butan-l-ol] | ≤ 100
Cc1c(-c2ccccc2)cccc1N1CCC(NC2CCC(C#N)CC2)CC1 (single isomer, unassigned) [40 (peak 2), 4-(1-(2-methylbiphenyl-3-yl)piperidin-4-ylamino)cyclohexane carbonitrile] | ≤ 100
Cc1c(-c2ccccc2)cccc1N1CCC(NC2CC2)CC1 [Example 36, N-cyclopropyl-1-(2-methylbiphenyl-3-yl)piperidin-4-amine] | ≤ 100
CO[C@H]1C[C@H](NC2CCN(c3cccc(-c4ccc5c(c4)OCCO5)c3C#N)CC2)C1 [Example 13, 2-(2,3-dihydrobenzo[b][1,4]dioxin-6-yl)-6-(4-(trans-3-methoxycyclobutylamino)piperidin-1-yl)benzonitrile] | ≤ 100
Cc1c(-c2ccccc2)cccc1N1CCC(NCCc2cnn(C)c2)CC1 [Example 31, N-(2-(1-methyl-1H-pyrazol-4-yl)ethyl)-1-(2-methylbiphenyl-3-yl)piperidin-4-amine] | ≤ 100
N#Cc1c(-c2ccc3c(c2)OCCO3)cccc1N1CCC(NC[C@@H]2CCCC[C@@H]2O)CC1 (relative stereo) [Example 19, 2-(2,3-dihydro-1,4-benzodioxin-6-yl)-6-[4-({[cis-2-hydroxycyclohexyl]methyl}amino)piperidin-1-yl]benzonitrile] | ≤ 100

SMILES | IC50 [nM]
N#Cc1c(-c2ccc3c(c2)OCCO3)cccc1N1CCC(N[C@H]2C[C@@H](CO)C2)CC1 [Example 8, 2-(2,3-dihydrobenzo[b][1,4]dioxin-6-yl)-6-(4-(cis-3-(hydroxymethyl)cyclobutyl-amino)piperidin-l-yl)benzonitrile] | ≤ 100
N#Cc1c(C2=CCCCC2)cccc1N1CCC(N2CCCC2)CC1 [Example 50, 2-cyclohexenyl-6-(4-(pyrrolidin-1-yl)piperidin-1-yl)benzonitrile] | ≤ 100
N#Cc1c(-c2ccc3c(c2)OCCO3)cccc1N1CCC(NC2CCCC2CO)CC1 (stereo not drawn) [Example 17, 2-(2,3-dihydrobenzo[b][1,4]dioxin-6-yl)-6-(4-(cis-2-(hydroxymethyl)cyclopentylamino)piperidin-l-yl)benzonitrile] | ≤ 100
N#Cc1c(C2CCCCC2)cccc1N1CCC(N2CCCC2)CC1 [Example 51, 2-cyclohexyl-6-(4-(pyrrolidin-1-yl)piperidin-1-yl)benzonitrile] | 100 to 500
COCC(C)NC1CCN(c2cccc(-c3ccccc3)c2C)CC1 (racemic) [Example 44, N-(1-methoxypropan-2-yl)-1-(2-methylbiphenyl-3-yl)piperidin-4-amine] | ≤ 100
CN(C)C1CCN(c2cccc(-c3ccc4c(c3)OCCO4)c2C#N)CC1 [Example 3, 2-(2,3-dihydrobenzo[b][1,4]dioxin-6-yl)-6-(4-(dimethylamino)piperidin-1-yl)benzonitrile] | 100 to 500
N#Cc1c(-c2ccc3c(c2)OCCO3)cccc1N1CCC(NC2CCOCC2)CC1 [Example 7, 2-(2,3-dihydrobenzo[b][1,4]dioxin-6-yl)-6-(4-(tetrahydro-2H-pyran-4-ylamino)piperidin-1-yl)benzonitrile] | ≤ 100
Cc1c(-c2ccccc2)cccc1N1CCC(NC2CCCC(C(=O)O)C2)CC1 (single isomer, unassigned) [46 (peak 1), 3-(1-(2-methylbiphenyl-3-yl)piperidin-4-ylamino)cyclohexane carboxylic acid] | ≤ 100
Cc1c(-c2ccccc2)cccc1N1CCC(NC2CCC(C(=O)O)(c3ccc(Cl)cc3)CC2)CC1 (single isomer, unassigned) [47 (peak 1), 1-(4-chlorophenyl)-4-(1-(2-methylbiphenyl-3-yl)piperidin-4-ylamino)cyclohexane carboxylic acid] | ≤ 100
Cc1c(-c2ccccc2)cccc1N1CCC(NC2CCC(C(=O)O)(c3ccc(Cl)cc3)CC2)CC1 (single isomer, unassigned) [47 (peak 2), 1-(4-chlorophenyl)-4-(1-(2-methylbiphenyl-3-yl)piperidin-4-ylamino)cyclohexane-carboxylic acid] | ≤ 100
Cc1c(-c2ccccc2)cccc1N1CCC(NC2CC(C(=O)O)C2)CC1 (centres unmarked) [Example 45, 3-(1-(2-methylbiphenyl-3-yl)piperidin-4-ylamino)cyclobutane-carboxylic acid] | ≤ 100
N#Cc1c(-c2ccc3c(c2)OCCO3)cccc1N1CCC(N[C@H]2C[C@@H](O)C2)CC1 [Example 1, 2-(2,3-dihydro-1,4-benzodioxin-6-yl)-6-{4-[(cis-3-hydroxycyclobutyl)amino]piperidin-1-yl}benzonitrile] | ≤ 100
N#Cc1c(-c2ccc3c(c2)OCCO3)cccc1N1CCC(N[C@H]2CC[C@H](O)CC2)CC1 [Example 24, 2-(2,3-dihydrobenzo[b][1,4]dioxin-6-yl)-6-(4-(trans-4-hydroxycyclohexylamino)piperidin-1-yl)benzonitrile] | ≤ 100
N#Cc1c(-c2ccc3c(c2)OCCO3)cccc1N1CCC(N[C@H]2C[C@H](CO)C2)CC1 [Example 23, 2-(2,3-dihvdrobenzo[b][1,4]dioxin-6-yl)-6-(4-(trans-3-(hydroxymethyl)cyclobutyl-amino)piperidin-1-yl)benzonitrile] | ≤ 100
N#Cc1c(-c2ccc3c(c2)OCCO3)cccc1N1CCC(N2CCC(CO)C2)CC1 (centres unmarked) [Example 25, 2-(2,3-dihydrobenzo[b][1,4]dioxin-6-yl)-6-(4-(3-(hydroxymethyl)pyrrolidin-1-yl)piperidin-1-yl)benzonitrile] | ≤ 100
Cc1c(-c2ccccc2)cccc1N1CCC(NC2CCC(C#N)CC2)CC1 (single isomer, unassigned) [40 (peak 1), 4-(1-(2-methylbiphenyl-3-yl)piperidin-4-ylamino)cyclohexane-carbonitrile] | ≤ 100
N#Cc1c(-c2ccc3c(c2)OCCO3)cccc1N1CCC(N[C@H]2C[C@H](O)C2)CC1 [Example 18, 2-(2,3-dihydrobenzo[b][1,4]dioxin-6-yl)-6-(4-(trans-3-hydroxycyclobutylamino)piperidin-1-yl)benzonitrile] | ≤ 100
